Cytotoxicity data for 102 molecules are collected here from ChEMBL document CHEMBL3507680, “University of Dundee, Gates Library screen for HepG2 cell viability”.

This data set in a line: Human HepG2 cell viability assay in 384 well format. Type of data set: toxicity, cell-based. On the set-up: dose 125 nL, time 70.5 hour; concentration not given beside the values. The settings on record: HepG2 cells, read-out: Inhibition.
`CC(C)(C)n1nnnc1CN(Cc1ccccc1)Cc1ccc(Cl)cc1`: the cytotoxicity at 70.5 h was 8.17%. For `COCCN1CCCC(c2ncc(C(=O)N(C)C)c(C)n2)C1` (configuration not stated) the value was -1.17%. In the case of `Cn1c(=O)cc(C(=O)NC(Cc2ccsc2)c2cccnc2)[nH]c1=O` (configuration not stated), the cytotoxicity at 70.5 h is -3.19%. `Cc1cnc(-c2nc(O)c3c(n2)CN(C(=O)C2CCCC2)CC3)cn1`: the cytotoxicity at 70.5 h was -1.77%. As to `COc1ccccc1-c1ccccc1CC1(C(=O)O)CCNCC1`, the cytotoxicity at 70.5 h worked out at 0.76%. As to `Fc1cccc(CN2CCC(c3noc(-c4ccccn4)n3)CC2)c1F`, the cytotoxicity at 70.5 h was -0.639%. Take `O=C(Cn1cccc2cc(-c3ccc(F)cc3)nc1-2)N1CCC(O)CC1`: the cytotoxicity at 70.5 h was determined as 3.41%. `CC(=O)N[C@@H]1CN(C(=O)CC2CCOCC2)C[C@H]1O`: the cytotoxicity at 70.5 h is -1.61%.

As for `Clc1ccc(CN(CCN2CCOCC2)Cc2cccnc2)c(Cl)c1`, the cytotoxicity at 70.5 h is -5.57%. `Cc1ncc(CN(C)C)c(C2CCCN2c2ncccn2)n1` (configuration not stated): the cytotoxicity at 70.5 h was -7.95%.

`Cc1cc(CCC2CN(CC3(O)CCCCC3)CCO2)ncn1` (configuration not stated): the cytotoxicity at 70.5 h worked out at 19.4%.

Turning to `O=C(Cc1cccc(O)c1)N1CCCC(O)(CN2CCCC2)CC1` (configuration not stated), the cytotoxicity at 70.5 h was -6.1%. In the case of `c1ccc(CN2CCN(Cc3cnc(C4CCCCO4)nc3)CC2)cc1` (configuration not stated), the cytotoxicity at 70.5 h came to 1.9%.

Regarding `c1nc(C2CCCCO2)ncc1CN1CCOCC1` (configuration not stated), the cytotoxicity at 70.5 h is -4.04%. Regarding `CC(=O)N1CCCC(Cc2cnc(-c3c(C)nn(C)c3C)cn2)C1` (configuration not stated), the cytotoxicity at 70.5 h is -7.67%. With `COc1cccc(S(=O)(=O)N2C[C@H](OC)[C@]3(CCCO3)C2)c1`, the cytotoxicity at 70.5 h was -4.33%. Turning to `CO[C@H]1CN(S(=O)(=O)c2ccccc2F)C[C@@]12CCCO2`, the cytotoxicity at 70.5 h was -7.14%. For `O=C(c1ccc(-n2cccn2)nc1)N1CCC(c2ccn[nH]2)C1` (configuration not stated) the value was -8.23%; for `CS(=O)(=O)CCN1CCN(c2ccc(Cl)cn2)CC1`, 1.44%; for `O=C(NCCc1nncn1C1CC1)C1(c2ccccc2)CCC1`, -5.9%. For the molecule `COCCS(=O)(=O)NC(C)c1cccc(-n2cccn2)c1` (configuration not stated), the cytotoxicity at 70.5 h is 0.445%. For the molecule `CCC(NC(=O)c1ccc(OC)nn1)c1nc(C(F)(F)F)cs1` (configuration not stated), the cytotoxicity at 70.5 h was -6.03%.

Turning to `CCCS(=O)(=O)CC(=O)NC(C)c1cccc(-n2cccn2)c1` (configuration not stated), the cytotoxicity at 70.5 h was 10.5%.

With `CC(NCc1cnn(C)c1)c1noc(-c2ccc(Cl)cc2)n1` (configuration not stated), the cytotoxicity at 70.5 h is -5.15%. Turning to `CCC(C)Oc1cc(C(=O)N(c2cccnc2)C(C)C)ccn1` (configuration not stated), the cytotoxicity at 70.5 h came out at 0.858%. As for `CC(NS(=O)(=O)N(C)C)c1cccc(-n2cccn2)c1` (configuration not stated), the cytotoxicity at 70.5 h was -3.97%. For the molecule `O=C(C1CC1)N(CCc1ccccc1)C1CCOC1` (configuration not stated), the cytotoxicity at 70.5 h was -6.28%. Take `Cn1ccnc1C(O)(CCNCc1ccc(Cl)o1)C(F)(F)F` (configuration not stated): the cytotoxicity at 70.5 h is -14.8%. In the case of `Cn1ccnc1C(O)(CCNCc1ccco1)C(F)(F)F` (configuration not stated), the cytotoxicity at 70.5 h was 5.83%. The same measure for `CC(=O)N1CCC(Oc2cccc(C#N)c2)CC1`: 13.4%; for `Cn1cc(C(NCc2ccc(F)cc2)c2cccc(F)c2)cn1` (configuration not stated): -13.5%. With `COc1ccc(CN2CCCC(n3cccn3)C2)c(Cl)c1OC` (configuration not stated), the cytotoxicity at 70.5 h is -9%. Turning to `CC(C(=O)N(C)Cc1ccc(Br)o1)n1cncn1` (configuration not stated), the cytotoxicity at 70.5 h is -1.04%.

Consider `COc1cccc(COCC(=O)NC2CCN(CC(N)=O)CC2)c1`, for which the cytotoxicity at 70.5 h is -5.13%. The same measure for `Cc1ccc(S(=O)(=O)NCc2[nH]ncc2Br)cc1C`: -8.92%; for `Cc1ccc(C(C)NC(=O)Cc2c(C)nc3cc(=O)[nH]n3c2C)s1` (configuration not stated): -10.8%; for `CC/C=C(/C)C(=O)N1CSCC1C(=O)NC1=NCCS1` (configuration not stated): -7.18%.

For `Cc1ccc(NC2CCN(C(=O)CCC3CCCO3)CC2)nn1` (configuration not stated), the cytotoxicity at 70.5 h was -3.33%. Consider `CCC(C)(O)CNc1ccc(S(=O)(=O)C(F)F)cc1` (configuration not stated), for which the cytotoxicity at 70.5 h is -5.3%. Consider `CNC(=O)C(CC(C)C)NC(=O)c1cccc(-c2nc(C)cs2)c1` (configuration not stated), for which the cytotoxicity at 70.5 h was 15.4%.

As for `COCC(O)CNc1cncc(Br)c1` (configuration not stated), the cytotoxicity at 70.5 h is -2.5%. With `Cc1ccc(CNC(=O)c2ccc(CNS(C)(=O)=O)o2)cc1F`, the cytotoxicity at 70.5 h is 17.8%. For `O=C(CCc1nc(-c2cccnc2)no1)N(CC1CCOC1)C1CC1` (configuration not stated), the cytotoxicity at 70.5 h amounted to 12%.

Consider `CC(C)(C)c1noc(CCC(=O)N(CC2CCOC2)C2CC2)n1` (configuration not stated), for which the cytotoxicity at 70.5 h was 2.82%.

Consider `COCCN1CC(C(=O)N(C)Cc2ccc(Cl)s2)CC1=O` (configuration not stated), for which the cytotoxicity at 70.5 h was -10.5%. In the case of `Cc1ccc(CN(C)C(=O)C(C)n2cncn2)o1` (configuration not stated), the cytotoxicity at 70.5 h was -4.1%.

Regarding `COc1c(C)cnc(CN2CCn3c(nnc3C3CC3)C2)c1C`, the cytotoxicity at 70.5 h was -2.97%. `c1ccc(CCN2CCC(OCC3CCCCO3)CC2)nc1` (configuration not stated): the cytotoxicity at 70.5 h turned out to be 5.3%.

Take `Cc1cccc2nc(CN3CCC(N4CCN(C)C4=O)CC3)cn12`: the cytotoxicity at 70.5 h is -4.38%.

With `CC(C)(C)NC(=O)CNc1ncccn1`, the cytotoxicity at 70.5 h was -8.78%. Turning to `CN(C)CCN(Cc1ccc(Cl)cc1)C(=O)c1ccn(C)c(=O)c1`, the cytotoxicity at 70.5 h is -5.83%. The same measure for `Cc1cc(C(=O)NC(C)Cc2ccc(N(C)C)cc2)n(C)n1` (configuration not stated): -1.34%. On to `Cc1cc(C)n2cc(CN3CCC(N4CCN(C)C4=O)CC3)nc2n1`, for which the cytotoxicity at 70.5 h was -0.599%.

As for `c1cnc(N2CCC(OCC3CCCCO3)CC2)nc1` (configuration not stated), the cytotoxicity at 70.5 h is -2.08%. In the case of `COC(=O)NCC(=O)N1CCC(c2cc3ccccc3[nH]2)CC1`, the cytotoxicity at 70.5 h is -8.79%. As for `Clc1cccc(C(CNCc2ccccn2)N2CCOCC2)c1` (configuration not stated), the cytotoxicity at 70.5 h amounted to 48.6%. As for `CCOC1CCCN(C(=O)CCOc2ccc(C)cc2OC)C1` (configuration not stated), the cytotoxicity at 70.5 h turned out to be 24.8%. For `CNS(=O)(=O)c1ccc(F)c(C(=O)NCc2ccnc(OC)c2)c1`, the cytotoxicity at 70.5 h amounted to 25.8%.

Consider `CC(C)CC(=O)N1CCC2(CC1)OCCO2`, for which the cytotoxicity at 70.5 h is -6.38%. `CC(C)C(C)NC(=O)CNc1cc2c(cc1Cl)NC(=O)CO2` (configuration not stated): the cytotoxicity at 70.5 h was 6.71%. As to `CC(NC(=O)CNc1cc2c(cc1Cl)OCCO2)c1ccco1` (configuration not stated), the cytotoxicity at 70.5 h was -8.18%. Consider `COc1ccc(-c2nc(CCNC(=O)NC3CCC(O)CC3)co2)cc1` (configuration not stated), for which the cytotoxicity at 70.5 h was 17.3%.

`CCN(C)c1cc(CNC(=O)CNC(=O)CC2CCCCC2)ccn1`: the cytotoxicity at 70.5 h was -16.4%. Turning to `Clc1cccc(C(CNc2ncccn2)N2CCOCC2)c1` (configuration not stated), the cytotoxicity at 70.5 h was -5.68%. Turning to `CCc1[nH]c(C2(N)CCCCC2)nc(=O)c1C`, the cytotoxicity at 70.5 h was -4.64%. Regarding `CCc1[nH]c(C2(N)CCCC2)nc(=O)c1C`, the cytotoxicity at 70.5 h is 19.5%. The same measure for `CCOC1CCN(C(=O)NCc2cccc(-n3cccn3)c2)CC1`: -5.08%; for `NC(=O)CC1CCN(C(=O)NCc2cccc(-n3cccn3)c2)CC1`: -1.91%. For `CCSCc1csc(-c2ccc(S(C)(=O)=O)cc2)n1` the value was -2.67%; for `COc1ccc(Cl)cc1CCNC(=O)NCc1ncnn1C`, -13.1%. Consider `COc1cc(C)ccc1OCC(=O)NS(=O)(=O)c1cccnc1`, for which the cytotoxicity at 70.5 h is -3.71%. As to `CC(C)(C)c1nccc(N2CCCCC2CCNS(C)(=O)=O)n1` (configuration not stated), the cytotoxicity at 70.5 h was found to be 2.95%. Turning to `CCc1noc(Cn2c(=O)c3c(C(F)(F)F)cc(C)nc3n2C)n1`, the cytotoxicity at 70.5 h was 19.2%.

`CCS(=O)(=O)NCC(=O)NC(c1cc(C)sc1C)C(C)C` (configuration not stated): the cytotoxicity at 70.5 h was -0.761%.

Regarding `Cc1cc(Cn2c(=O)c3c(C(F)(F)F)cc(C)nc3n2C)on1`, the cytotoxicity at 70.5 h was -3.01%.

For `COc1cccc(OC)c1CC(=O)NC(C#N)c1ccsc1` (configuration not stated), the cytotoxicity at 70.5 h is -12.5%. On to `N#CC(NC(=O)CNC(=O)c1ccccc1)c1ccsc1` (configuration not stated), for which the cytotoxicity at 70.5 h is -3.11%.

As to `Cc1cc(C(NC(=O)CNS(C)(=O)=O)C(C)C)c(C)s1` (configuration not stated), the cytotoxicity at 70.5 h is 1.39%. As to `COc1cc(C)ccc1OCCC(=O)N1CCCC(n2cncn2)C1` (configuration not stated), the cytotoxicity at 70.5 h is -9.18%. For `CC(C)COc1cncc(N2CCCN(CC(F)(F)F)CC2)n1`, the cytotoxicity at 70.5 h was -5.33%.

Regarding `Cc1nc2n(n1)CC(NCc1c(Cl)ccc3cccnc13)CC2` (configuration not stated), the cytotoxicity at 70.5 h was -9.95%. For `O=S(=O)(NCCc1cn2ccccc2n1)N1CCOCC1` the value was -7.24%; for `CC(NC(=O)N1CCCCCC1)c1ccc(S(N)(=O)=O)cc1` (configuration not stated), -7.46%; for `CC(NC(=O)N1CCC1)c1ccc(S(N)(=O)=O)cc1` (configuration not stated), -7.27%. With `Cc1noc(C2CCN(Cn3cc(Cl)cn3)CC2)n1`, the cytotoxicity at 70.5 h is -4.35%. For the molecule `CC(NC(=O)N1CCCN(C)CC1)c1ccc(S(N)(=O)=O)cc1` (configuration not stated), the cytotoxicity at 70.5 h was -4.13%. For `NC(=O)C1CCN(c2ccc(C(=O)N3CCc4ccccc43)cn2)C1` (configuration not stated), the cytotoxicity at 70.5 h is -4.05%. For `COc1ccc(CCNC(=O)c2ccc(=O)n(C)c2)c(Cl)c1`, the cytotoxicity at 70.5 h was -7.56%. Turning to `CC(CC(=O)c1ccccc1)NC(=O)c1ccon1` (configuration not stated), the cytotoxicity at 70.5 h is -5.06%. In the case of `CCOc1ccc(Cl)cc1CCNC(=O)Cn1nc(C)ccc1=O`, the cytotoxicity at 70.5 h amounted to 7.64%. As to `NC(=O)[C@@H]1Cc2ccccc2N1C(=O)C1CC(c2ccccc2)=NO1` (some centres not stated), the cytotoxicity at 70.5 h is 6.72%.

Regarding `CC(C)COc1cncc(N2CCCN(c3ncccn3)CC2)n1`, the cytotoxicity at 70.5 h was -7.71%. Turning to `CC(C)n1ccc(C(=O)OCC2CC(=O)N(Cc3ccccc3)C2)n1` (configuration not stated), the cytotoxicity at 70.5 h was -8.67%. In the case of `O=C(CNC(=O)c1ccc(Cl)cc1)Nc1nccs1`, the cytotoxicity at 70.5 h amounted to 20.2%. In the case of `CC(C)N1CCC(NC(=O)NCc2ccccc2)CC1`, the cytotoxicity at 70.5 h is -0.0959%. Take `Cn1c(SCc2noc(C(C)(C)C)n2)nnc1C1CCS(=O)(=O)C1` (configuration not stated): the cytotoxicity at 70.5 h is -7.06%. In the case of `CNCC(=O)N1CCCC1c1n[nH]cc1-c1ccccc1F` (configuration not stated), the cytotoxicity at 70.5 h is 0.833%. The same measure for `CC1CCN(C(=O)C2(Cc3cc(C4CCOC4)no3)CCNCC2)CC1` (configuration not stated): -1.77%; for `NCC(=O)N1CCCC1c1n[nH]cc1-c1ccccc1F` (configuration not stated): 25.4%; for `CCn1cncc1CN1CCN(CC2(c3ccc(C)cc3)CC2)CC1`: 12%. Turning to `NCc1ccc(Oc2ccc(F)c(F)c2)cc1C(F)(F)F`, the cytotoxicity at 70.5 h is -0.173%. Turning to `CN(Cc1cccc2cccnc12)C1CCS(=O)(=O)C1` (configuration not stated), the cytotoxicity at 70.5 h came to 24.2%.
